Data published in PMC8658016, “Identification of New Compounds with Anticonvulsant and Antinociceptive Properties in a Group of 3-substituted (2,5-dioxo-pyrrolidin-1-yl)(phenyl)-Acetamides” (International Journal of Molecular Sciences, 2021).

Columns and labels:
CYP3A4 = target: T1, CYP3A4 (Homo sapiens, UniProt P08684); experiment: CYP3A4 P450-Glo luminescent assay; assay type: in vitro ADME
T1 construct: purchased Promega (Madison, WI, USA)

mice [1] = experiment: Grip strength test (neuromuscular strength); assay type: in vivo, mouse; conditions: 30 min
Description: Figure 3 Acute effect of compound 14 on the neuromuscular strength in mice. Compound 14 was administered i.p. 30 min before the test. Control animals received vehicle only. Each experimental group consisted of 10 animals. Each bar represents the mean + S.E.M. grip strengths in Newtons per gram of mouse body weight (N/g). * p < 0.05 vs. the control group (one-way ANOVA, followed by Dunnett’s post hoc test, GraphPad Prism 8.0.1).
(§1) In this study, we used adult male Swiss albino mice (Kołacz, Laboratory Animals Breeding, Warszawa, Poland) license no. 106/2019 (Local Ethical Committee in Lublin). In studies assessing the acute effect of compound 14 on neuromuscular strength, body temperature, and seizure threshold, compound 14 was suspended in a 1% solution of Tween 80 and administered i.p., 30 min before the tests.
The acute effect of compound 14 on neuromuscular strength was quantified using the grip-strength apparatus (BIOSEB, Chaville, France) according to the method described elsewhere.

hepatoma HepG2 cells = experiment: Hepatotoxicity, HepG2 viability (MTS); assay type: cell-based; conditions: 72 h; viability affected at 100 µM only
mice [2] = experiment: Timed ivPTZ seizure threshold test; assay type: in vivo, mouse
Source text: The timed ivPTZ test was employed to evaluate the acute effect of compound 14 on the seizure thresholds for (1) the first myoclonic twitch, (2) generalized clonic seizure with the loss of the righting reflex, and (3) forelimb tonus. The experimental procedure has been described in detail elsewhere.
as §1
The timed ivPTZ test was employed to evaluate the acute effect of compound 14 on the seizure thresholds for (1) the first myoclonic twitch, (2) generalized clonic seizure with loss of righting reflex, and (3) forelimb tonus. The experimental procedure was described in detail elsewhere. The changes in temperature were recorded using an electronic thermometer (ThermoWorks, Alpine, UT, USA). Mice were gently restrained and a rectal probe was inserted to a depth of ~2 cm into the rectum.
Figure 2 Acute effect of compound 14 on the threshold for the first myoclonic twitch (panel (A)), generalized clonus (panel (B)), and forelimb tonus (panel (C)) in the ivPTZ seizure threshold test in mice. Compound 14 was administered i.p. 30 min before the seizure test. Control animals received vehicle only. Each experimental group consisted of 9–11 animals. Each bar represents the mean (mg/kg PTZ) + S.E.M. * p < 0.05; ** p < 0.01 vs. the control group (one-way ANOVA, followed by Dunnett’s post hoc test, GraphPad Prism 8.0.1).

TRPV1 (VR1) (h) = target: T2, TRPV1 (VR1) (h) (Homo sapiens, UniProt Q8NER1); experiment: TRPV1 (VR1) functional assay, antagonist effect; assay type: cell-based; conditions: HEK293, human recombinant HEK-293 cells, read-out: % Inhibition of Control Agonist Response, TRPV1 (VR1) (h) (antagonist effect)
T2 construct: Cerep Laboratories / Eurofins Panlabs (contract assay)
T2 sequence (Q8NER1 whole entry): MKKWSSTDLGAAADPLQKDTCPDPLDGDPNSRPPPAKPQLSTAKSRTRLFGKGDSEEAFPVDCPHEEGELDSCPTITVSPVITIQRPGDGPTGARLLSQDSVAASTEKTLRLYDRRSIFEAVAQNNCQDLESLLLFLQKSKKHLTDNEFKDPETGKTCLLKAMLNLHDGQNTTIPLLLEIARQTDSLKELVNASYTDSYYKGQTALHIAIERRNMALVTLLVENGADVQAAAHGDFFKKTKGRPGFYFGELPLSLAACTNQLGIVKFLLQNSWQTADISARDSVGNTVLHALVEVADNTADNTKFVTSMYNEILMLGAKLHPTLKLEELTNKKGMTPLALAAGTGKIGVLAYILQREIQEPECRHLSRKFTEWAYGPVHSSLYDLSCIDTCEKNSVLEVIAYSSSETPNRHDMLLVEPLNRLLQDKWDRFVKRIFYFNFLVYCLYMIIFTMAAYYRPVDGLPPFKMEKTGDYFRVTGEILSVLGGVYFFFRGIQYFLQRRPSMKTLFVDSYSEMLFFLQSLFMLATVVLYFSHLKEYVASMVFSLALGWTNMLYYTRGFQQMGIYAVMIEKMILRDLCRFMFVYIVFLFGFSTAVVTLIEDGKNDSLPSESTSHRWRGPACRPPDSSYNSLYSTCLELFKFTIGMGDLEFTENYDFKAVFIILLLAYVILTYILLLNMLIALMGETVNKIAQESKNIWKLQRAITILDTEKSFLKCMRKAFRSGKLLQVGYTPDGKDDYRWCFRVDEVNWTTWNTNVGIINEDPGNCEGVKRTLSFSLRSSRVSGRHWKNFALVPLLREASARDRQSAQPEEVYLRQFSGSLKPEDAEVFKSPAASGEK

mice [3] = experiment: 6 Hz (44 mA) seizure test, model of drug-resistant epilepsy; assay type: in vivo; conditions: Mus musculus, ip; mice i.p.; 95% confidence interval in parentheses
mice [4] = experiment: Maximal electroshock seizure (MES) test; assay type: in vivo, mouse; conditions: mice i.p.
in vivo = conditions: male, CD-1, mouse, ip
mice [5] = experiment: Formalin test (tonic pain); assay type: in vivo; conditions: Mus musculus, ip, mice i.p.
Description: The formalin test is a commonly used model of pain also useful in screening the analgesic activity of novel compounds. A subcutaneous formalin injection results in a biphasic nociceptive response; a phase one (5 min) followed by a quiescent period (10 min) and then phase two (15 min). C-fibers’ initial and direct stimulation in phase one led to peripheral inflammation accompanied by ongoing peripheral nerve activity and central sensitization during phase two. Moreover, a formalin injection induces persistent changes similar to those observed in nerve injury and subsequent neuropathic pain [27].
The experiments were conducted on adult male Albino Swiss mice (CD-1, 18–25 g) and male Wistar rats (Krf:(WI) WU), 180–250 g) as described previously. The minimum number of animals used needed to obtain definite and normally distributed results with the utilized test. Behavioral measures were scored by trained observers, which were blind to experimental conditions. […]
Data were presented as means ± standard error of the mean (S.E.M). […] Statistically significant differences between groups were calculated using one-way analysis of variance (ANOVA) and the post hoc Dunnett’s multiple comparison test or two-way analysis of variance (ANOVA) and the post hoc Tukey’s comparison when appropriate. […]

[6] = target: Cav1.2 (h) calcium ion channel (Homo sapiens, UniProt Q13936); experiment: Cav1.2 calcium ion channel cell based antagonist calcium flux assay; conditions: HEK293, read-out: % Inhibition of Control Agonist Response, Cav1.2 (h) calcium ion channel cell based antagonist calcium flux assay
[7] = 30 mg/kg i.p., 30 min before test

T1 sequence (P08684 whole entry): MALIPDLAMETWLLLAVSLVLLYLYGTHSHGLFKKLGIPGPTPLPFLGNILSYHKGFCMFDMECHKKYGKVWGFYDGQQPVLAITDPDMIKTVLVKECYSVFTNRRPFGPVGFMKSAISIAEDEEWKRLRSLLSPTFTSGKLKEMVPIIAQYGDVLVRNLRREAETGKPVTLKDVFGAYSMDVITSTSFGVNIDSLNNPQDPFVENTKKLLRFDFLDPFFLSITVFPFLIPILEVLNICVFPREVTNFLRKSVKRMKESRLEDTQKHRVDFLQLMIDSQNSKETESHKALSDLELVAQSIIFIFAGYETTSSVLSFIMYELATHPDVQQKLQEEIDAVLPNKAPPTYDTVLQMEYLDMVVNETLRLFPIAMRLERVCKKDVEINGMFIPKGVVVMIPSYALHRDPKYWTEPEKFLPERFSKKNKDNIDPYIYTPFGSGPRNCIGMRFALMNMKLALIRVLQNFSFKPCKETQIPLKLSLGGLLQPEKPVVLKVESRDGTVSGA

Structure (SMILES): CN(C)C1CC(=O)N(C(C(=O)N2CCN(c3cccc(C(F)(F)F)c3)CC2)c2ccccc2)C1=O.Cl (centres unmarked) [Compound 14, 3-(Dimethylamino)-1-(2-oxo-1-phenyl-2-(4-(3-(trifluoromethyl)phenyl)-piperazin-1-yl)ethyl)pyrrolidine-2,5-dione hydrochloride]
- CYP3A4 activity in the presence of the compound (CYP3A4; 10 µM): higher than 50%
- CYP3A4 inhibition, classification (CYP3A4; significant inhibition only at 10 µM and 25 µM (p < 0.0001)): moderate inhibitor
- effect on neuromuscular strength (grip strength) (mice [1]; 30 mg/kg i.p.): did not significantly affect
- effect on grip strength (mice [1]; 60 mg/kg i.p., p < 0.05 (Dunnett)): significantly decreased
- hepatotoxicity (HepG2 viability) (hepatoma HepG2 cells): generally non-toxic
- effect on threshold for generalized clonus (ivPTZ) (mice [2]; [7]): did not significantly affect
- effect on threshold for the first myoclonic twitch (ivPTZ) (mice [2]; [7]): did not significantly affect
- effect on threshold for generalized clonic seizure (ivPTZ) (mice [2]; 60 mg/kg i.p., 30 min before test, p < 0.01): slightly increased
- effect on threshold for the first myoclonic twitch (ivPTZ) (mice [2]; 60 mg/kg i.p., 30 min before test, p < 0.05): slightly increased
- effect on threshold for forelimb tonic extension (ivPTZ) (mice [2]; 30 and 60 mg/kg i.p.): No statistically significant changes
- inhibition at 10 µM (TRPV1 (VR1) (h); 10 µM): 17.3%
- inhibition at 50 µM (TRPV1 (VR1) (h); 50 µM): 88.8%
- ED50 (mice [3]): 63.2 mg/kg
- ED50 (mice [4]; Mus musculus, ip, 95% confidence interval in parentheses): 49.6 mg/kg
- MES screening: number of mice protected / number of mice tested (mice [4]; 100 mg/kg, 0.5 h): 4/4
- protection in the MES test (mice [4]; 100 mg/kg, 0.5 h): 100%
- TD50 (in vivo): 169 mg/kg
- ED50 (mice [5]; 0–5 min after formalin, read-out: ED50 formalin test, phase I): 85.1 mg/kg
- ED50 (mice [5]; 15–30 min after formalin, read-out: ED50 formalin test, phase II): 56.1 mg/kg
- inhibition at 10 µM [6]: 29%
